For 17 compounds, IC50 results are on record in patent US20240199571A1, “THIOPHENE COMPOUND AND APPLICATION THEREOF” (MEDSHINE DISCOVERY INC., priority 2021, published 2024).

Counter-ions that a name gives are not always drawn.

One experiment concerns the target human LSD1 (Homo sapiens (Human), UniProt O60341). The experiment can be described thus: Experiment 1B: in vitro LSD1 enzyme activity, enzyme-coupled fluorescence (HRP/Amplex Red), H3(1-21)K4me2 peptide 10 μM (Reaction Biology). The following applies: histone H3(1-21)K4me2 peptide 10 μM. Format: biochemical. The procedure:
Experiment 1B: Evaluation of Enzyme Activity
Testing unit: Reaction Biology Corp., USA.
The purpose of the assay was to test the in vitro inhibitory activity of the compounds against LSD1. The enzyme used in the assay was human LSD1, and the standard substrate was histone H3(1-21)K4me2 peptide (10 μM). The activity of the compounds was determined by the enzyme-coupling fluorescent method by the combined detection of H2O2 generated after the reaction of LSD1 by horseradish peroxidase (HRP) and the fluorescent reagent Amplex Red. Starting from 10 μM, the compounds were 3-fold diluted to detect the IC50 values of the compounds at 10 concentrations. The enzyme and substrate were incubated for 30 minutes before the compound was added to the substrate to start the reaction. Fluorescence detector: EnVision, excitation wavelength: Ex/Em=535/590 nM.
As for `N#Cc1ccc(-c2cc(C(=O)N3CCC[C@@H](N)C3)sc2-c2ccc3nn(CC4(O)CCC4)cc3c2)cc1F` [Hydrochloride of compound 79], the midpoint of inhibition, the IC50, lay at 13.6 nM.
On the same count and under the same terms, under `N#Cc1ccc(-c2cc(C(=O)N3CCC[C@@H](N)C3)sc2-c2ccc(N3CCC(O)C3)cc2)cc1F` (stereo partly shown) [Hydrochloride of compound 85] stands 14.2 nM.
The same measure, in the same setting: under `N#Cc1ccc(-c2cc(C(=O)N3CCC[C@@H](N)C3)sc2-c2cc3nnn(CC4(O)CCC4)c3c(F)c2F)cc1F` [Hydrochloride of compound 92] stands 9.81 nM.
In turn, `N#Cc1ccc(-c2cc(C(=O)N3CCC[C@@H](N)C3)sc2-c2cc3cn(CC4(O)CC4)nc3cc2F)cc1F` [Hydrochloride of compound 93] returned a 50% inhibitory concentration (IC50) of 18 nM.
On the same count and under the same terms, then `N#Cc1ccc(-c2cc(C(=O)N3CCC[C@@H](N)C3)sc2-c2cc3cn(CC4(O)CCC4)nc3cc2F)cc1F` [Hydrochloride of compound 95], with 10.1 nM.
`N#Cc1ccc(-c2cc(C(=O)N3CCC[C@@H](N)C3)sc2-c2ccc(N3CC[C@H](O)C3)c(F)c2)cc1F` [Hydrochloride of compound 96] had an IC50 of 20.6 nM.
For the compound `N#Cc1ccc(-c2cc(C(=O)N3CCC[C@@H](N)C3)sc2-c2cc3nnn([C@H]4COCC[C@@H]4O)c3c(F)c2F)cc1F` [Hydrochloride of compound 97], the IC50 stood at 25.3 nM.
On the same count and under the same terms, then `N#Cc1ccc(-c2cc(C(=O)N3CCCNCC3)sc2-c2cc3nnn(CC4(O)CCC4)c3c(F)c2F)cc1F` [Hydrochloride of compound 100], with 14.1 nM; and `N#Cc1ccc(-c2cc(C(=O)N3CCC[C@@H](N)C3)sc2-c2ccc(N3CC[C@@H](O)C3)c(F)c2)cc1F` [Hydrochloride of compound 101], with 28.7 nM; and `CC(C)(CO)n1cc2cc(-c3sc(C(=O)N4CCCNCC4)cc3-c3ccc(C#N)c(F)c3)ccc2n1` [Hydrochloride of compound 102], with 56.9 nM.
For `CC(C)(CO)n1nnc2cc(-c3sc(C(=O)N4CCCNCC4)cc3-c3ccc(C#N)c(F)c3)c(F)c(F)c21` [Hydrochloride of compound 103], the IC50 was found to be 21.6 nM.
Still for that read-out and setting: under `CN[C@@H]1CCCN(C(=O)c2cc(-c3ccc(C#N)c(F)c3)c(-c3ccc4nn(C(C)(C)CO)cc4c3)s2)C1` [Hydrochloride of compound 104] stands 16.6 nM; under `N#Cc1ccc(-c2cc(C(=O)N3CCC[C@@H](N)C3)sc2-c2ccc(N3CC[C@H](O)C3)cc2)cc1F` [Hydrochloride of compound 107], 15.1 nM.
Same read-out and setting: then `CN[C@@H]1CCCN(C(=O)c2cc(-c3ccc(C#N)c(F)c3)c(-c3ccc(N4CC[C@@H](O)C4)cc3)s2)C1` [Hydrochloride of compound 109], with 10.7 nM; and `N#Cc1ccc(-c2cc(C(=O)N3CCC[C@@H](N)C3)sc2-c2ccc(N3CC[C@@H](O)C3)cc2)cc1F` [Hydrochloride of compound 110], with 9.84 nM.
On the same count and under the same terms, under `N#Cc1ccc(-c2cc(C(=O)N3CCC[C@@H](N)C3)sc2-c2ccc(N3CC[C@@H](O)C3)cc2F)cc1F` [Hydrochloride of compound 112] stands 5.84 nM; under `N#Cc1ccc(-c2cc(C(=O)N3CCCNCC3)sc2-c2ccc(N3CC[C@@H](O)C3)cc2)cc1F` [Hydrochloride of compound 117], 19 nM.

Another experiment deals with NCI-H1417 cells. The experiment can be described thus: Experiment 2: inhibition of NCI-H1417 cell proliferation (CellTiter-Glo, 10 days). Type of experiment: cell-based. The note with it: Homo sapiens, 240 h, 10 days incubation. The procedure: Experiment 2: Evaluation of Inhibitory Activity on NCI-H1417 Cell Proliferation
Experimental purpose: To test the inhibitory activity of test compounds on NCI-H1417 cell proliferation.
Experimental materials: RPMI 1640 medium, fetal bovine serum, Promega CellTiter-Glo reagent. The NCI-H1417 cell line was purchased from ATCC. Envision multilabel plate reader (PerkinElmer).
Experimental method: The compounds were dissolved to 10 mM and 5-fold diluted with DMSO in the compound plates, starting with a concentration of 2 mM. 3-fold serial dilution was performed with Bravo to 10 concentrations. Then 250 nL of the compound solution was transferred to the upper and lower double duplicate wells of a blank 384 cell plate with Echo. To each well containing the transferred 250 nL of DMSO/compound was added a cell suspension of 1000 cells/50 μL per well, and the compound was diluted 200-fold, i.e., resulting in an initial working concentration of 10 μM. The cell plate was incubated in a carbon dioxide incubator for 10 days. To the cell plate was added 25 μL of Promega CellTiter-Glo reagent per well and the mixture was shaken for 10 minutes at room temperature to stabilize the luminescence signal. Readings were performed on a PerkinElmer Envision multilabel plate reader.
Data analysis: Raw data were converted into inhibition rate using the formula: (Max−Ratio)/(Max−Min)*100%. The IC50 values could then be derived from four-parameter curve fitting. (derived from 205 mode in XLFIT5, iDBS)
The compounds were tested for inhibitory activity of compounds on NCI-H1417 cell proliferation, and the results are shown in Table 3.
As for `N#Cc1ccc(-c2cc(C(=O)N3CCC[C@@H](N)C3)sc2-c2ccc3nn(CC4(O)CCC4)cc3c2)cc1F` [Hydrochloride of compound 79], the concentration for half-maximal inhibition (IC50) was 3.32 nM.
In turn, `N#Cc1ccc(-c2cc(C(=O)N3CCC[C@@H](N)C3)sc2-c2ccc(N3CCC(O)C3)cc2)cc1F` (stereo partly shown) [Hydrochloride of compound 85] registered an IC50 of 2.32 nM.
On the same count and under the same terms, under `N#Cc1ccc(-c2cc(C(=O)N3CCC[C@@H](N)C3)sc2-c2cc3nnn(CC4(O)CCC4)c3c(F)c2F)cc1F` [Hydrochloride of compound 92] stands 0.43 nM; under `N#Cc1ccc(-c2cc(C(=O)N3CCC[C@@H](N)C3)sc2-c2cc3cn(CC4(O)CC4)nc3cc2F)cc1F` [Hydrochloride of compound 93], 4.11 nM; under `N#Cc1ccc(-c2cc(C(=O)N3CCC[C@@H](N)C3)sc2-c2cc3cn(CC4(O)CCC4)nc3cc2F)cc1F` [Hydrochloride of compound 95], 2.51 nM.
On the same count and under the same terms, under `N#Cc1ccc(-c2cc(C(=O)N3CCC[C@@H](N)C3)sc2-c2ccc(N3CC[C@H](O)C3)c(F)c2)cc1F` [Hydrochloride of compound 96] stands 4.79 nM; under `N#Cc1ccc(-c2cc(C(=O)N3CCC[C@@H](N)C3)sc2-c2cc3nnn([C@H]4COCC[C@@H]4O)c3c(F)c2F)cc1F` [Hydrochloride of compound 97], 9.6 nM; under `N#Cc1ccc(-c2cc(C(=O)N3CCCNCC3)sc2-c2cc3nnn(CC4(O)CCC4)c3c(F)c2F)cc1F` [Hydrochloride of compound 100], 0.37 nM.
Regarding `N#Cc1ccc(-c2cc(C(=O)N3CCC[C@@H](N)C3)sc2-c2ccc(N3CC[C@@H](O)C3)c(F)c2)cc1F` [Hydrochloride of compound 101], the IC50 came out at 3.35 nM.
In the case of `CC(C)(CO)n1cc2cc(-c3sc(C(=O)N4CCCNCC4)cc3-c3ccc(C#N)c(F)c3)ccc2n1` [Hydrochloride of compound 102], the midpoint of inhibition, the IC50, lay at 31.4 nM.
On the same count and under the same terms, under `CC(C)(CO)n1nnc2cc(-c3sc(C(=O)N4CCCNCC4)cc3-c3ccc(C#N)c(F)c3)c(F)c(F)c21` [Hydrochloride of compound 103] stands 13.7 nM; under `CN[C@@H]1CCCN(C(=O)c2cc(-c3ccc(C#N)c(F)c3)c(-c3ccc4nn(C(C)(C)CO)cc4c3)s2)C1` [Hydrochloride of compound 104], 4.75 nM; under `N#Cc1ccc(-c2cc(C(=O)N3CCC[C@@H](N)C3)sc2-c2ccc(N3CC[C@H](O)C3)cc2)cc1F` [Hydrochloride of compound 107], 3.31 nM.
`CN[C@@H]1CCCN(C(=O)c2cc(-c3ccc(C#N)c(F)c3)c(-c3ccc(N4CC[C@@H](O)C4)cc3)s2)C1` [Hydrochloride of compound 109] came in with an IC50 of 2.03 nM.
In the case of `N#Cc1ccc(-c2cc(C(=O)N3CCC[C@@H](N)C3)sc2-c2ccc(N3CC[C@@H](O)C3)cc2)cc1F` [Hydrochloride of compound 110], half-maximal inhibition (IC50) required 3.47 nM.
On to `N#Cc1ccc(-c2cc(C(=O)N3CCC[C@@H](N)C3)sc2-c2ccc(N3CC[C@@H](O)C3)cc2F)cc1F` [Hydrochloride of compound 112], for which half-maximal inhibition (IC50) required 4.99 nM. The IC50 values of the last two compounds are within 1.5-fold of each other.
Regarding `N#Cc1ccc(-c2cc(C(=O)N3CCCNCC3)sc2-c2ccc(N3CC[C@@H](O)C3)cc2)cc1F` [Hydrochloride of compound 117], the IC50 was determined as 40.2 nM.
